Laboratory results reported in US20070128217A1 (priority 2003, published 2007).

Assays:
[1] = tested on: rabbit serum obtained by immunizing a rabbit with the SARS-CoV strain Frankfurt 1; type: binding; design: Binding of a rabbit serum to linear peptides / Binding of a rabbit serum to looped peptides / Rabbit serum linear peptides / Rabbit serum looped peptides / Binding of a rabbit serum to linear peptides of protein N of SARS-CoV Urbani (Rabbit serum linear peptides) / Binding of a rabbit serum to looped/cyclic peptides of protein N of SARS-CoV Urbani (Rabbit serum looped peptides): unit not given here
[2] = tested on: control sera (pooled serum of ten healthy LUMC hospital workers; commercial negative donor pooled serum from the Dutch bloodbank); type: binding, human; design: Binding of Control serum LUMC to linear peptides / Binding of Control serum Blood-bank to linear peptides / Binding of Control serum LUMC to looped peptides / Binding of Control Serum Blood-Bank to Looped peptides / Binding of Control serum LUMC to linear peptides of the protein M of SARS-CoV Urbani / Binding of Control serum Blood-bank to linear peptides of the protein M of SARS-CoV Urbani / Binding of Control serum LUMC to looped peptides of the protein M of SARS-CoV Urbani / Binding of Control Serum Blood-Bank to Looped peptides of the protein M of SARS-CoV Urbani: unit not given here
[3] = tested on: antibodies in sera from SARS patients (sera 1a, 1b, 2, 6, 37, 62, London, SARS-yellow, SARS-green); type: binding, human; design: Binding of serum 6 to linear peptides of protein X1 of SARS-CoV Urbani / Binding of serum 37 to linear peptides of protein X1 of SARS-CoV Urbani / Binding of serum 6 to looped/cyclic peptide (PEPSCAN-ELISA) / Binding of serum 37 to looped/cyclic peptide (PEPSCAN-ELISA) / Binding of serum 37 to looped/cyclic peptides of protein X1 of SARS-CoV Urbani / Binding of serum 6 to linear peptides of protein X2 / Binding of serum 37 to linear peptides of protein X2 / Binding of serum 37 to looped/cyclic peptides of protein X2 of SARS-CoV Urbani / Binding of serum 6 to linear peptides of protein M of SARS-CoV Urbani / Binding of serum 37 to linear peptides of protein M of SARS-CoV Urbani / Binding of serum 6 to looped/cyclic peptides of protein M of SARS-CoV Urbani / Binding of serum 37 to looped/cyclic peptides of protein M of SARS-CoV Urbani / Binding of serum 6 to linear peptides of protein X3 of SARS-CoV Urbani / Binding of serum 37 to linear peptides of protein X3 of SARS-CoV Urbani / Binding of serum 37 to looped/cyclic peptides of protein X3 of SARS-CoV Urbani / Binding of serum 6 to linear peptides of protein X4 of SARS-CoV Urbani / Binding of serum 37 to linear peptides of protein X4 of SARS-CoV Urbani / Binding of serum 37 to looped/cyclic peptides of protein X4 of SARS-CoV Urbani / Binding of serum 6 to linear peptides of protein X5 of SARS-CoV Urbani / Binding of serum 37 to linear peptides of protein X5 of SARS-CoV Urbani / Binding of serum 37 to looped/cyclic peptides of protein X5 of SARS-CoV Urbani / Binding of serum 6 to linear peptides of protein N of SARS-CoV Urbani / Binding of serum 37 to linear peptides of protein N of SARS-CoV Urbani / Binding of serum 6 to linear peptide (PEPSCAN-ELISA) / Binding of serum 1a to looped/cyclic peptides of protein N of SARS-CoV Urbani / Binding of serum 1b to looped/cyclic peptides of protein N of SARS-CoV Urbani / Binding of serum 2 to looped/cyclic peptides of protein N of SARS-CoV Urbani / Binding of serum 6 to looped/cyclic peptides of protein N of SARS-CoV Urbani / Binding of serum 37 to looped/cyclic peptides of protein N of SARS-CoV Urbani / Binding of serum 62 to looped/cyclic peptides of protein N of SARS-CoV Urbani / Binding of serum London to looped/cyclic peptides of protein N of SARS-CoV Urbani / Binding of serum SARS-green to looped/cyclic peptides of protein N of SARS-CoV Urbani: unit not given here
[4] = tested on: recombinant human anti-SARS-CoV antibody 03-018; type: binding; design: Binding of antibody 03-018 to linear peptides of the N protein of SARS-CoV Urbani / Binding of antibody 03-018 to looped/cyclic peptides of the N protein of SARS-CoV Urbani: unit not given here

Sequence | Binding of a rabbit serum to linear peptides of protein N of SARS-CoV Urbani (Rabbit serum linear peptides) [1] | Binding of a rabbit serum to looped/cyclic peptides of protein N of SARS-CoV Urbani (Rabbit serum looped peptides) [1] | Binding of serum 1a to looped/cyclic peptides of protein N of SARS-CoV Urbani [3] | Binding of serum 1b to looped/cyclic peptides of protein N of SARS-CoV Urbani [3] | Binding of serum 2 to looped/cyclic peptides of protein N of SARS-CoV Urbani [3] | Binding of serum 6 to looped/cyclic peptides of protein N of SARS-CoV Urbani [3] | Binding of serum 37 to looped/cyclic peptides of protein N of SARS-CoV Urbani [3] | Binding of serum 62 to looped/cyclic peptides of protein N of SARS-CoV Urbani [3] | Binding of serum London to looped/cyclic peptides of protein N of SARS-CoV Urbani [3] | Binding of serum SARS-green to looped/cyclic peptides of protein N of SARS-CoV Urbani [3] | Binding of serum SARS-yellow to looped/cyclic peptides of protein N of SARS-CoV Urbani [3] | Binding of antibody 03-018 to linear peptides of the N protein of SARS-CoV Urbani [4] | Binding of antibody 03-018 to looped/cyclic peptides of the N protein of SARS-CoV Urbani [4] | Control Serum Blood-Bank Looped peptides [2] | Control serum Blood-bank linear peptides [2] | Control serum LUMC linear peptides [2] | Control serum LUMC looped peptides [2] | Binding of serum 1a to linear peptides of protein N of SARS-CoV Urbani [3] | Binding of serum 1b to linear peptides of protein N of SARS-CoV Urbani [3] | Binding of serum 2 to linear peptides of protein N of SARS-CoV Urbani [3] | further results
EGSRGGSQASSRSSS | 0.2 | 0.7 | 0.4 | 0.3 | 0.4 | 0.6 | 0.6 | 0.4 | 0.4 | 0.7 | 0.7 | 0.1 | 0.2 |  |  |  |  |  |  |  | Binding of Control Serum Blood-Bank to Looped peptides [2]: 0.7; Binding of Control serum Blood-bank to linear peptides [2]: 1.0; Binding of Control serum LUMC to linear peptides [2]: 1.0; Binding of Control serum LUMC to looped peptides [2]: 0.8; Binding of serum 1a to linear peptide (PEPSCAN-ELISA) [3]: 0.3; Binding of serum 1b to linear peptide (PEPSCAN-ELISA) [3]: 0.2; Binding of serum 2 to linear peptide (PEPSCAN-ELISA) [3]: 0.3; Binding of serum 6 to linear peptide (PEPSCAN-ELISA) [3]: 0.4; Binding of serum 37 to linear peptide (PEPSCAN-ELISA) [3]: 0.9; Binding of serum 62 to linear peptide (PEPSCAN-ELISA) [3]: 0.8; Binding of serum London to linear peptide (PEPSCAN-ELISA) [3]: 0.5; Binding of serum SARS-green to linear peptide (PEPSCAN-ELISA) [3]: 0.6; Binding of serum SARS-yellow to linear peptide (PEPSCAN-ELISA) [3]: 0.6
EVTPSGTWLTYHGAI | 0.1 | 0.3 | 0.4 | 0.3 | 0.5 | 0.3 | 0.8 | 0.9 | 0.5 | 0.7 | 0.4 | 0.1 | 0.2 | 0.8 | 0.7 | 0.6 | 0.7 | 0.2 | 0.1 | 0.1 | Binding of serum 6 to linear peptides of protein N of SARS-CoV Urbani [3]: 0.2; Binding of serum 37 to linear peptides of protein N of SARS-CoV Urbani [3]: 0.7; Binding of serum 62 to linear peptides of protein N of SARS-CoV Urbani [3]: 0.5; Binding of serum London to linear peptides of protein N of SARS-CoV Urbani [3]: 0.4; Binding of serum SARS-green to linear peptides of protein N of SARS-CoV Urbani [3]: 0.1; Binding of serum SARS-yellow to linear peptides of protein N of SARS-CoV Urbani [3]: 0.5
FAPSASAFFGMSRIG | 0.0 | 0.3 | 0.3 | 0.1 | 0.4 | 0.3 | 0.5 | 0.4 | 0.9 | 0.0 | 0.5 | 0.1 | 0.2 | 0.4 | 0.5 | 0.6 | 0.4 | 0.2 | 0.1 | 0.2 | Binding of serum 6 to linear peptides of protein N of SARS-CoV Urbani [3]: 0.1; Binding of serum 37 to linear peptides of protein N of SARS-CoV Urbani [3]: 0.6; Binding of serum 62 to linear peptides of protein N of SARS-CoV Urbani [3]: 0.5; Binding of serum London to linear peptides of protein N of SARS-CoV Urbani [3]: 0.4; Binding of serum SARS-green to linear peptides of protein N of SARS-CoV Urbani [3]: 0.4; Binding of serum SARS-yellow to linear peptides of protein N of SARS-CoV Urbani [3]: 0.5
FFGMSRIGMEVTPSG | 0.2 | 0.4 | 0.3 | 0.2 | 0.4 | 0.1 | 0.5 | 0.4 | 0.3 | 0.1 | 0.4 | 0.1 | 0.2 | 0.5 | 0.8 | 0.7 | 0.5 | 0.3 | 0.1 | 0.2 | Binding of serum 6 to linear peptides of protein N of SARS-CoV Urbani [3]: 0.2; Binding of serum 37 to linear peptides of protein N of SARS-CoV Urbani [3]: 0.7; Binding of serum 62 to linear peptides of protein N of SARS-CoV Urbani [3]: 0.7; Binding of serum London to linear peptides of protein N of SARS-CoV Urbani [3]: 0.6; Binding of serum SARS-green to linear peptides of protein N of SARS-CoV Urbani [3]: 0.3; Binding of serum SARS-yellow to linear peptides of protein N of SARS-CoV Urbani [3]: 0.8
